{"source": "PubChem BioAssay AID2060902", "about": "(Molecular Pharmacology Branch, DTP, NCI, 2025)", "test_system": "485368-065-R3-J5-PDC spheroids with HUVEC/MSC, viability", "assay": "Anticancer human tumor 485368-065-R3-J5-PDC patient-derived pancreatic carcinoma cell line growth inhibition [RAS]", "conditions": "for pIC50: curve of first compound; for viability, T/C: stronger effect = lower value", "procedure,_shortened": "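Multi-cell-type spheroids: tumor cells plus HUVEC endothelial cells and mesenchymal stem cells. RAS-pathway inhibitors were combined with targeted agents, each dosed in half-log steps down from clinical Cmax, or from 10 microM when Cmax was unknown.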", "note": "pIC50: −log10 of the molar value.", "data": [{"molecule": "CCC(CC)c1cc(NC2CCC(N)C2)n2nccc2n1", "note": "(configuration not stated) + C=CC(=O)N1CCN(c2nc(OCC3CCCN3C)nc3c(F)c(-c4nc(N)cc(C)c4C(F)(F)F)c(Cl)cc23)C(C)C1;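 further: spheroids exposed to agents for seven days before readout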", "values": [{"measurement": "pIC50", "setting": "second compound 0.00316 µM", "result": 5.71}, {"measurement": "pIC50", "setting": "second compound 0.01 µM", "result": 5.70}, {"measurement": "pIC50", "setting": "second compound 0.0316 µM", "result": 5.71}, {"measurement": "pIC50", "setting": "second compound 0.1 µM", "result": 5.71}, {"measurement": "pIC50", "setting": "second compound 0.316 µM", "result": 5.71}, {"measurement": "pIC50", "setting": "second compound 1 µM", "result": 5.70}, {"measurement": "viability, T/C", "setting": "second compound 0.00316 µM, first compound 0.0316 µM", "result": 107, "unit": "%"}, {"measurement": "viability, T/C", "setting": "second compound 0.00316 µM, first compound 0.1 µM", "result": 93, "unit": "%"}, {"measurement": "viability, T/C", "setting": "second compound 0.00316 µM, first compound 0.316 µM", "result": 114, "unit": "%"}, {"measurement": "viability, T/C", "setting": "second compound 0.00316 µM, first compound 1 µM", "result": 133, "unit": "%"}, {"measurement": "viability, T/C", "setting": "second compound 0.00316 µM, first compound 3.16 µM", "result": 3.52, "unit": "%"}, {"measurement": "viability, T/C", "setting": "second compound 0.00316 µM, first compound 10 µM", "result": 6.56, "unit": "%"}, {"measurement": "viability, T/C", "setting": "second compound 0.01 µM, first compound 0.0316 µM", "result": 118, "unit": "%"}, {"measurement": "viability, T/C", "setting": "second compound 0.01 µM, first compound 0.1 µM", "result": 108, "unit": "%"}, {"measurement": "viability, T/C", "setting": "second compound 0.01 µM, first compound 0.316 µM", "result": 109, "unit": "%"}, {"measurement": "viability, T/C", "setting": "second compound 0.01 µM, first compound 1 µM", "result": 136, "unit": "%"}, {"measurement": "viability, T/C", "setting": "second compound 0.01 µM, first compound 3.16 µM", "result": 3.73, "unit": "%"}, {"measurement": "viability, T/C", "setting": "second compound 0.01 µM, first compound 10 µM", "result": 5.65, "unit": "%"}, {"measurement": "viability, T/C", "setting": "second compound 0.0316 µM, first compound 0.0316 µM", "result": 101, "unit": "%"}, {"measurement": "viability, T/C", "setting": "second compound 0.0316 µM, first compound 0.1 µM", "result": 109, "unit": "%"}, {"measurement": "viability, T/C", "setting": "second compound 0.0316 µM, first compound 0.316 µM", "result": 112, "unit": "%"}, {"measurement": "viability, T/C", "setting": "second compound 0.0316 µM, first compound 1 µM", "result": 134, "unit": "%"}, {"measurement": "viability, T/C", "setting": "second compound 0.0316 µM, first compound 3.16 µM", "result": 3.48, "unit": "%"}, {"measurement": "viability, T/C", "setting": "second compound 0.0316 µM, first compound 10 µM", "result": 4.43, "unit": "%"}, {"measurement": "viability, T/C", "setting": "second compound 0.1 µM, first compound 0.0316 µM", "result": 93.7, "unit": "%"}, {"measurement": "viability, T/C", "setting": "second compound 0.1 µM, first compound 0.1 µM", "result": 104, "unit": "%"}, {"measurement": "viability, T/C", "setting": "second compound 0.1 µM, first compound 0.316 µM", "result": 117, "unit": "%"}, {"measurement": "viability, T/C", "setting": "second compound 0.1 µM, first compound 1 µM", "result": 143, "unit": "%"}, {"measurement": "viability, T/C", "setting": "second compound 0.1 µM, first compound 3.16 µM", "result": 3.81, "unit": "%"}, {"measurement": "viability, T/C", "setting": "second compound 0.1 µM, first compound 10 µM", "result": 6.8, "unit": "%"}, {"measurement": "viability, T/C", "setting": "second compound 0.316 µM, first compound 0.0316 µM", "result": 94.8, "unit": "%"}, {"measurement": "viability, T/C", "setting": "second compound 0.316 µM, first compound 0.1 µM", "result": 108, "unit": "%"}, {"measurement": "viability, T/C", "setting": "second compound 0.316 µM, first compound 0.316 µM", "result": 106, "unit": "%"}, {"measurement": "viability, T/C", "setting": "second compound 0.316 µM, first compound 1 µM", "result": 132, "unit": "%"}, {"measurement": "viability, T/C", "setting": "second compound 0.316 µM, first compound 3.16 µM", "result": 3.87, "unit": "%"}, {"measurement": "viability, T/C", "setting": "second compound 0.316 µM, first compound 10 µM", "result": 7.93, "unit": "%"}, {"measurement": "viability, T/C", "setting": "second compound 1 µM, first compound 0.0316 µM", "result": 97.5, "unit": "%"}, {"measurement": "viability, T/C", "setting": "second compound 1 µM, first compound 0.1 µM", "result": 92.3, "unit": "%"}, {"measurement": "viability, T/C", "setting": "second compound 1 µM, first compound 0.316 µM", "result": 120, "unit": "%"}, {"measurement": "viability, T/C", "setting": "second compound 1 µM, first compound 1 µM", "result": 133, "unit": "%"}, {"measurement": "viability, T/C", "setting": "second compound 1 µM, first compound 3.16 µM", "result": 5.49, "unit": "%"}, {"measurement": "viability, T/C", "setting": "second compound 1 µM, first compound 10 µM", "result": 10.8, "unit": "%"}]}]}
